Laboratory results taken from patent US20240299358A1, “COMPOSITIONS AND METHODS FOR DIAGNOSIS AND TREATMENT OF AUTOIMMUNE DISEASES” (DUKE UNIVERSITY, priority 2021, published 2024).

Experiments:
eHsp90 [1] = experiment: Flow cytometry uptake of fluor-tethered Hsp90 inhibitors by T cells from human PBMCs; type: cell-based
Experimental: T-cell activation: PBMC aliquots (ZenBio SER-PBMC-F) were washed in RPMI-1640 with 10% FBS and PSG and then rested overnight in a T-75 flask. The suspended cells were then transferred to a fresh flask and activated in fresh RPMI-1640/10% FBS/PSG by 3:20,000 anti-CD3 (BioLegend 317303), 3:20,000 anti-CD28 (BioLegend 302913), and 1:10,000 (30 IU/mL) human IL-2 (CST 8907SC) and incubated for up to 72 hours. In the experiments with longer activation, samples were diluted 1:3 into fresh media containing hIL-2 at 72 hours post initial stimulation with CD3/CD28 antibodies.
Flow Cytometry: The activated/rested cells were plated into a 96-well round bottom plate and pelleted at low speed. Cells were resuspended in chilled media containing titrated HS-131 or HS-198 (in 1% DMSO) and stained for 30 minutes at RT. Fluorochrome tagged inhibitors and media were washed away with a PBS wash, followed by a PBS wash containing 3% NMS. Surface antibody stains were performed in 3% NMS/PBS for 30 minutes followed by PBS washes (2x). Samples were analyzed on BD FACSCanto II flow cytometer. Permeabilized samples were prepared as previously described followed by fixation in 4% Formaldehyde/PBS overnight at 4° C. Sample analysis was performed with Flowing Software and FlowJo.
A hallmark of T cell function is to proliferate rapidly in response to antigen presentation along with appropriate cytokine and costimulatory signaling. This leads to the induction of the chaperone machinery which is essential in facilitating this process. In some respects, antigen induced T cell proliferation may be analogous to oncogene driven metastasis. Therefore, to investigate whether proliferating T cells similarly express eHsp90 during T cell activation, their ability to absorb fluor-tethered Hsp90 inhibitors following an anti-CD3/CD28 challenge was examined (see. FIGS. 2A-2E). The structures of two types of fluor-tethered Hsp90 inhibitors (HS-131 and […]) that were used in the present studies are shown in FIG. 2A. […]

eHsp90 [2] = experiment: In vivo tracking of eHsp90 expression in CIA mouse model of RA (flow cytometry, CryoViz imaging); conditions: 6 hours post tail vein injection, CD4 and CD8 T cells (FIG. 5B)
Experimental: FIG. 5A is a schematic of CIA mouse model of RA experimental design, wherein mice were inoculated with CIA on day 0) and 21. […] 6-hours post treatment mice were whole body cryopreserved. […] Gated regions indicate CD4 and CD8 T-Cell populations isolated from individual mice. eHsp90 expression in CD4 and CD8 T cells 6 hours post HS-131 or HS-198 treatment. N=3+SD. Experiments represent 3 biological replicates.
CIA Disease: Collagen was prepared at 4 mg/ml in 0.01 N acetic acid. Equal volumes of 4 mg/ml collagen and 5 mg/ml Freund's complete adjuvant were emulsified by hand mixing with syringes for approximately 5 min, at which point a bead of this material holds its form when placed in water. On study days 0 and 21, animals were anesthetized with isoflurane and given intradermal injections of a total of 400 μg of type II collagen in Freund's complete adjuvant at the base of the tail.
CryoViz™ Imaging: Whole mice were imaged at 10.23 μm×10.23 μm in-plane resolution using an Olympus MVX-10 microscope with a 1X objective and 0.63× magnification and 40 μm section thickness, using the Cryo Viz™ (BioInVision, Inc., Cleveland, USA). CryoViz™ is a fully automated, serial sectioning-and-imaging system which provides 3-dimensional, tiled, microscopic anatomical bright field and molecular fluorescence images over large fields-of-view such as a whole mouse. Images were acquired using a dual band FITC/TxRed fluorescence filter (Chroma, Inc., Rockingham, VT), a liquid crystal RGB filter and a low-noise monochrome camera. Raw images acquired by the Cryo Viz™ were processed to generate 3D color anatomical brightfield and molecular fluorescence volumes using the Cryo Viz™ Preprocessor software (BioIn Vision, Inc., Cleveland, Ohio). These 3D volumetric image data were then processed using the CryoViz™ 3D Visualizer software (BioInVision, Inc., Cleveland, USA) to obtain 3D reconstructed brightfield and fluorescence volume renderings and movies with 2D slice cutaway animations, showing the 2D/3D biodistribution of TxRed labeled HS-131 within the mouse volume.
This was consistently seen in cell culture, tumor cell xenografts and mouse models of spontaneous metastatic disease (Barrott et al. Chem Biol 20. 1187-1197 (2013)). […] To determine if this phenomenon occurred within the context of a fully functional immune system, the collagen induced arthritic (CIA) mouse model of human rheumatoid arthritis (RA) was utilized (Rice et al. Arthritis Rheum 58. 3765-3775 (2008)). Mice (DBA/IlacJ ˜8 weeks old) reliably develop polyarthritis when immunized against bovine type II collagen (Scarneo et al. Arthritis Res Ther 21, 292 (2019): Campbell et al., Ann Rheum Dis 56, 364-368 (1997)). The disease that occurs is usually non-symmetric, and any combination of paws/joints may be affected. Mice were injected […] with bovine collagen at Day (and then again 21 days later (FIG. 5A). This second injection triggered the development of the CIA related symptoms over the next several days within the joints. A primary mediator of local inflammatory responses in autoimmunity are invading T cell populations recognizing foreign antigens. To determine if invading T cells at sites of active disease expressed eHsp90, the animals were injected with HS-131 or HS-198. This was done at the peak of RA symptoms following the second immune challenge. After 6 hours, the animals were euthanized, immediately cryo-frozen in liquid nitrogen and cryo-sectioned (see, FIG. 5A).
Approximately, 500 40 μm slices were made and each slice imaged with both bright field and by fluorescence at Ex640 nm/Em680 nm. Evaluation of the biodistribution was then made by histological examination of individual slices and after in silico reconstruction of the entire mouse anatomy (see, FIGS. 5B-5E).

Compound	uptake of inactive analogue by stimulated T cells (eHsp90 [1]; 10 μM (FIG. 2D))	probe signal (eHsp90 expression) in T cells of PBMC populations from CIA mice by flow cytometry (eHsp90 [2])	fluor signal on competition with Hsp90 inhibitor (eHsp90 [1]; saturating dose, 10-fold excess of ganetespib over 10 μM HS-131 (FIG. 2D))
Cc1nn(-c2ccc(C(=O)N(C)C)c(NCCCOCCOCCOCCOCCOCCCNCc3ccc(C(=C\C=C4/N(CCCCS(=O)(=O)O)c5ccccc5C4(C)C)/C=C/C4=[N+](CCCCS(=O)(=O)[O-])c5ccccc5C4(C)C)cc3)c2)c2c1C(=O)CC(C)(C)C2 [HS-198]	minimal uptake	No signal	
CC(C)c1cc(-c2n[nH]c(=O)n2-c2ccc3c(ccn3C)c2)c(O)cc1O [ganetespib, reference compound]			effectively blocked
